The text below walks through data of patent US10780074B2, “Compounds and uses thereof” (Sunovion Pharmaceuticals Inc., priority 2017, dated 2020).

In the experiment the test system is behaviors of compound-treated mice. Kind of experiment: Neuropharmacological Assay (SmartCube). Type of experiment: in vivo. Conditions: for minimal effective dose: Mus musculus, ip, 0.25 h, dose having 50% or more total activity in SmartCube, i.p., read-out: MED (minimal effective dose); for AD: ADHD (probability that activity matches class) / AG: analgesic (probability that activity matches class) / AX: anxiolytic (probability that activity matches class) / CE: cognitive enhancer (probability that activity matches class) / DP: anti-depressant (probability that activity matches class) / MS: mood stabilizer (probability that activity matches class) / PS: anti-psychotic (probability that activity matches class) / SD: sedative hypnotic (probability that activity matches class) / UN: uncharacterized CNS activity (probability that activity matches class): i.p. 15 min before behavioral test, most efficacious dose(s) of 3 doses. An excerpt:
Neuropharmacological Assay (SmartCube™)
Neurosci. 2011 Sep. 9; 5:103 (doi: 10.3389/fnins.2011.00103) (“Roberds”). As reported in Roberds, because psychiatric diseases generally result from disorders of cell-cell communication or circuitry, intact systems are useful in detecting improvement in disease-relevant endpoints. These endpoints are typically behavioral in nature, often requiring human observation and interpretation. To facilitate testing of multiple compounds for behavioral effects relevant to psychiatric disease, PsychoGenics, Inc. (Tarrytown, N.Y., “PGI”) developed SmartCube™, an automated system in which behaviors of compound-treated mice are captured by digital video and analyzed with computer algorithms. (D. Brunner et al., Drug Discov. Today 2002, 7:S107-S112). PGI Analytical Systems uses data from SmartCube™ to compare the behavioral signature of a test compound to a database of behavioral signatures obtained using a large set of diverse reference compounds. (The composition of the database as well as validation of the method is further described in Roberds). In this way, the neuropharmacological effects of a test compound can be predicted by similarity to major classes of compounds, such as antipsychotics, anxiolytics and antidepressants.
The SmartCube™ system produces an activity signature indicating the probability that the activity of the test compound at the administered dose matches a given class of neuropharmacological agents. (See, e.g., Roberds, FIGS. 2 and 3). The test compound is simultaneously compared against multiple classes of agents; thus, a separate probability is generated for each behavioral effect measured (e.g., anxiolytic activity, analgesic activity, etc.). In the table below, these probabilities are reported for each behavioral effect measured as follows:
Provided compounds were dissolved in a mixture of Pharmasolve™ (N-methyl-2-pyrrolidone), polyethylene glycol and propylene glycol, and were injected i.p. 15 min. before the behavioral test. For each compound, injections were administered at 3 different doses. For each behavioral effect measured, results for the most efficacious dose(s) are presented. In the table below, DP: anti-depressant; AX: anxiolytic; SD: sedative hypnotic; PS: anti-psychotic; MS: mood stabilizer; AD: ADHD; CE: cognitive enhancer; AG: analgesic; UN: uncharacterized CNS activity.
The potency of many of the compounds in the table was also determined in the SmartCube™ system. Test compounds were routinely examined at dose levels of 0.3, 1, 3 10 and 30 mg per kg (mpk), although the dose range was increased or decreased if necessary to obtain a full dose response curve. A compound's minimal effective dose (MED) is a measure of the compounds potency. The MED was defined as the dose (in mpk) having 50% or more total activity in SmartCube.

Molecules are shown by their SMILES. Structures can show the parent of a compound that is named as a salt. Bounds are passed on as bounds.

What is called minimal effective dose is the smallest amount tested that counted as effective. For `CNC[C@@H]1OCCc2cccc(-c3cccnc3)c21` (single isomer, unassigned) [Compound 1, bis-hydrochloride], the minimal effective dose fell in the range of 10 to 30 mg/kg, the “AD: ADHD (probability that activity matches class)” value (“AD: ADHD” for short) is on record as “+ (LOQ ≤ + <5%)”, the “AG: analgesic (probability that activity matches class)” value (shortened to “AG: analgesic”) was “+ (LOQ ≤ + <5%)” and the “AX: anxiolytic (probability that activity matches class)” value (“AX: anxiolytic” for short) is “++ (5% ≤ ++ <25%)”. For the same compound, the “CE: cognitive enhancer (probability that activity matches class)” value (“CE: cognitive enhancer” for short) is recorded as “++ (5% ≤ ++ <25%)”, the “DP: anti-depressant (probability that activity matches class)” value (“DP: anti-depressant” for short) is on record as “++ (5% ≤ ++ <25%)”, the “MS: mood stabilizer (probability that activity matches class)” value (from here on “MS: mood stabilizer”) is “+ (LOQ ≤ + <5%)” and the “PS: anti-psychotic (probability that activity matches class)” value (from here on “PS: anti-psychotic”) is “++ (5% ≤ ++ <25%)”. Moreover, the “SD: sedative hypnotic (probability that activity matches class)” value (“SD: sedative hypnotic” for short) is listed as “+ (LOQ ≤ + <5%)” and the “UN: uncharacterized CNS activity (probability that activity matches class)” value (“UN: uncharacterized CNS activity” below) is given as “++ (5% ≤ ++ <25%)”.

Regarding `CNC[C@@H]1OCCc2ccc(-c3cccnc3)cc21` (single isomer, unassigned) [Compound 3, dihydrochloride], the minimal effective dose is 3 to 10 mg/kg, the “AD: ADHD” value is recorded as “+ (LOQ ≤ + <5%)”, the “AG: analgesic” value was “++ (5% ≤ ++ <25%)” and the “AX: anxiolytic” value is “++ (5% ≤ ++ <25%)”. Besides, the “CE: cognitive enhancer” value was “++ (5% ≤ ++ <25%)”, the “DP: anti-depressant” value is on record as “++ (5% ≤ ++ <25%)”, the “MS: mood stabilizer” value is recorded as “++ (5% ≤ ++ <25%)” and the “PS: anti-psychotic” value is recorded as “++ (5% ≤ ++ <25%)”. The “SD: sedative hypnotic” value is given as “+ (LOQ ≤ + <5%)” and the “UN: uncharacterized CNS activity” value is “++ (5% ≤ ++ <25%)”.

`CNC[C@@H]1OCCc2c(-c3cccnc3)cccc21` (single isomer, unassigned) [Compound 7, bis-hydrochloride]: the minimal effective dose lay in the range of 10 to 30 mg/kg, the “AD: ADHD” value is reported as “++ (5% ≤ ++ <25%)”, the “AG: analgesic” value was “+ (LOQ ≤ + <5%)” and the “AX: anxiolytic” value was “++ (5% ≤ ++ <25%)”. Besides, the “CE: cognitive enhancer” value is “+ (LOQ ≤ + <5%)”, the “DP: anti-depressant” value is reported as “+++ (25% ≤ +++ <50%)”, the “MS: mood stabilizer” value was “+ (LOQ ≤ + <5%)” and the “PS: anti-psychotic” value is recorded as “+ (LOQ ≤ + <5%)”. In addition, the “SD: sedative hypnotic” value is “+ (LOQ ≤ + <5%)” and the “UN: uncharacterized CNS activity” value is reported as “+ (LOQ ≤ + <5%)”.

Take `CNC[C@H]1OCCc2c(-c3cccnc3)cccc21` (single isomer, unassigned) [Compound 8, bis-hydrochloride]: the minimal effective dose is not above 3 mg/kg, the “AD: ADHD” value is listed as “++ (5% ≤ ++ <25%)”, the “AG: analgesic” value is “+ (LOQ ≤ + <5%)” and the “AX: anxiolytic” value is “++ (5% ≤ ++ <25%)”. The “CE: cognitive enhancer” value is given as “+ (LOQ ≤ + <5%)”, the “DP: anti-depressant” value is “++++ (50% ≤ ++++)”, the “MS: mood stabilizer” value is listed as “+ (LOQ ≤ + <5%)” and the “PS: anti-psychotic” value is recorded as “+ (LOQ ≤ + <5%)”. The “SD: sedative hypnotic” value is given as “+ (LOQ ≤ + <5%)” and the “UN: uncharacterized CNS activity” value is “+ (LOQ ≤ + <5%)”.

On to `NC[C@@H]1OCCc2cccc(-c3cccnc3)c21` (single isomer, unassigned) [Compound 9, hydrochloride], for which the minimal effective dose was 10 to 30 mg/kg, the “AD: ADHD” value is recorded as “+ (LOQ ≤ + <5%)”, the “AG: analgesic” value was “++ (5% ≤ ++ <25%)” and the “AX: anxiolytic” value is “++ (5% ≤ ++ <25%)”. The “CE: cognitive enhancer” value was “+ (LOQ ≤ + <5%)”, the “DP: anti-depressant” value was “++ (5% ≤ ++ <25%)”, the “MS: mood stabilizer” value is “+ (LOQ ≤ + <5%)” and the “PS: anti-psychotic” value is on record as “++ (5% ≤ ++ <25%)”. Further, the “SD: sedative hypnotic” value is listed as “+ (LOQ ≤ + <5%)” and the “UN: uncharacterized CNS activity” value is “+ (LOQ ≤ + <5%)”.

On to `NC[C@H]1OCCc2cccc(-c3cccnc3)c21` (single isomer, unassigned) [Compound 10, hydrochloride], for which the minimal effective dose fell in the range of 10 to 30 mg/kg, the “AD: ADHD” value is given as “+ (LOQ ≤ + <5%)”, the “AG: analgesic” value is “+++ (25% ≤ +++ <50%)” and the “AX: anxiolytic” value was “+ (LOQ ≤ + <5%)”. In addition, the “CE: cognitive enhancer” value is “+ (LOQ ≤ + <5%)”, the “DP: anti-depressant” value is given as “++ (5% ≤ ++ <25%)”, the “MS: mood stabilizer” value is given as “+ (LOQ ≤ + <5%)” and the “PS: anti-psychotic” value is “+ (LOQ ≤ + <5%)”. The “SD: sedative hypnotic” value is “+ (LOQ ≤ + <5%)” and the “UN: uncharacterized CNS activity” value is “+ (LOQ ≤ + <5%)”.

On to `NC[C@@H]1OCCc2ccc(-c3cccnc3)cc21` (single isomer, unassigned) [Compound 11, hydrochloride], for which the minimal effective dose lay within 10 to 30 mg/kg, the “AD: ADHD” value was “+ (LOQ ≤ + <5%)”, the “AG: analgesic” value is listed as “++ (5% ≤ ++ <25%)” and the “AX: anxiolytic” value was “+ (LOQ ≤ + <5%)”. Moreover, the “CE: cognitive enhancer” value is “+ (LOQ ≤ + <5%)”, the “DP: anti-depressant” value is listed as “++++ (50% ≤ ++++)”, the “MS: mood stabilizer” value is on record as “+ (LOQ ≤ + <5%)” and the “PS: anti-psychotic” value was “+ (LOQ ≤ + <5%)”. Moreover, the “SD: sedative hypnotic” value is “+ (LOQ ≤ + <5%)” and the “UN: uncharacterized CNS activity” value is listed as “+ (LOQ ≤ + <5%)”.

As to `NC[C@H]1OCCc2ccc(-c3cccnc3)cc21` (single isomer, unassigned) [Compound 12, hydrochloride], the minimal effective dose lay in the range of 10 to 30 mg/kg, the “AD: ADHD” value is reported as “+ (LOQ ≤ + <5%)”, the “AG: analgesic” value is recorded as “+ (LOQ ≤ + <5%)” and the “AX: anxiolytic” value was “+ (LOQ ≤ + <5%)”. The “CE: cognitive enhancer” value is listed as “+ (LOQ ≤ + <5%)”, the “DP: anti-depressant” value is “++++ (50% ≤ ++++)”, the “MS: mood stabilizer” value was “+ (LOQ ≤ + <5%)” and the “PS: anti-psychotic” value was “++ (5% ≤ ++ <25%)”. Besides, the “SD: sedative hypnotic” value is “++ (5% ≤ ++ <25%)” and the “UN: uncharacterized CNS activity” value was “+ (LOQ ≤ + <5%)”.

As to `CNC[C@H]1OCCc2ccc(-c3cncnc3)cc21` (single isomer, unassigned) [Compound 25, hydrochloride], the minimal effective dose lay in the range of 10 to 30 mg/kg, the “AD: ADHD” value is “+ (LOQ ≤ + <5%)”, the “AG: analgesic” value was “++ (5% ≤ ++ <25%)” and the “AX: anxiolytic” value is listed as “++ (5% ≤ ++ <25%)”. Besides, the “CE: cognitive enhancer” value is given as “+++ (25% ≤ +++ <50%)”, the “DP: anti-depressant” value is recorded as “++ (5% ≤ ++ <25%)”, the “MS: mood stabilizer” value is “++ (5% ≤ ++ <25%)” and the “PS: anti-psychotic” value was “++ (5% ≤ ++ <25%)”. Besides, the “SD: sedative hypnotic” value was “++ (5% ≤ ++ <25%)” and the “UN: uncharacterized CNS activity” value is listed as “+ (LOQ ≤ + <5%)”.
